From patent US20230355759A1, “POPULATIONS OF NATURAL KILLER CELLS COMPRISING A CLEAVAGE RESISTANT CD16” (CELULARITY INC., priority 2019, published 2023)

Key:
CD34+ cells [1] = experiment: NK cell expansion in three-stage NK culture with compound; format: cell-based, human; conditions: for support of NK (PNK-007) expansion: compound at 10 μM during the first 14 days, 35-day culture; for NK cell expansion compared to SR1: compound and SR1 at 10 μM, Day 35; for expansion, differentiation and cytotoxicity profiles compared to SR1: PNK-007 culture
Excerpt: (§1) UCB CD34+ cells were cultivated in presence of cytokines including thrombopoietin, SCF, Flt3 ligand, IL-7, IL-15 and IL-2 for 35 days to produce three-stage NK cells, as described in Example 1. Multi-color flow cytometry was used to determine the phenotypic characteristics of three-stage NK cells.
(§2) For biological testing, the compounds were provided to culture to evaluate their effects on NK cell expansion and differentiation. Specifically, donors of CD34^+ cells (StemCell Technology) were thawed and expanded in vitro following NK culture protocol. During the first 14 days of the culture, each CRL compounds was dissolved in DMSO and added to the culture at 10 μM concentration. SR1 (at 10 μM) served as a positive control compound, while DMSO alone without any compound served as a negative control. At the end of the culture on Day 35, cell expansion, natural killer (NK) cell differentiation and cytotoxicity of the cells against K562 tumor cell line were characterized. Due to the large number of the compounds, the testing was performed in two experiments, CRL1-11 and CRL 12-22. The same donors were used for each experiment. Positive and negative controls were also included in both experiments.

K562 tumor cells = experiment: Cytotoxicity assay of compound cultured cells against K562; format: cell-based; conditions: K562, 10:1 effector to target ratio
Experimental: as §2
Cytotoxicity assay was run using compound cultured cells against K562 tumor cells at 10:1 effector to target ratio (FIG. 5) to evaluate cell functions.

CD34+ cells [2] = experiment: NK cell differentiation of compound cultured cells (flow cytometry); format: cell-based, human; conditions: PNK-007 culture
Excerpt: as §1, §2

CD34 cells = experiment: CD34 cell expansion at Day 14 of the culture; format: cell-based, human; conditions: compound at 10 μM
Experimental: as §2

SMILES | support of NK (PNK-007) expansion (CD34+ cells [1]) | NK cell expansion compared to SR1 (CD34+ cells [1]) | killing activities compared to cells cultured with SR1 (K562 tumor cells) | CD56+/CD11a+ subpopulation compared to SR1 (CD34+ cells [2]) | expansion, differentiation and cytotoxicity profiles compared to SR1 (CD34+ cells [1]) | CD34 cell expansion (CD34 cells)
CCC(C)Nc1cc(-c2cncc(C#N)c2)nc(NCCc2c[nH]c3ccccc23)n1 (centres unmarked) [CRL7, 5-(2-((2-(1H-indol-3-yl)ethyl)amino)-6-(sec-butylamino)pyrimidin-4-yl)nicotinonitrile] | all the compounds except CRL7 and CRL13 supported PNK-007 expansion and differentiation | – | – | – | – | –
CCC(C)Nc1nc(NCCc2c[nH]c3ccccc23)c2ccccc2n1 (centres unmarked) [CRL13, N^4-(2-(1H-indol-3-yl)ethyl)-N^2-(sec-butyl)quinazoline-2,4-diamine] | all the compounds except CRL7 and CRL13 supported PNK-007 expansion and differentiation | – | – | – | – | –
CC(C)c1csc2c(NCCc3c[nH]c4ccccc34)nc(-c3cncc(C#N)c3)nc12 [CRL17, 5-(4-((2-(1H-indol-3-yl)ethyl)amino)-7-isopropylthieno[3,2-d]pyrimidin-2-yl)nicotinonitrile] | – | slightly less expansion compared to SR1 | increased killing activities of the cells | increased CD56+/CD11a+ subpopulation | – | –
CC(C)c1csc2c(NCCc3c[nH]c4ccccc34)nc(-c3cncc(F)c3)nc12 [CRL18, N-(2-(1H-indol-3-yl)ethyl)-2-(5-fluoropyridin-3-yl)-7-isopropylthieno[3,2-d]pyrimidin-4-amine] | – | slightly less expansion compared to SR1 | increased killing activities of the cells | increased CD56+/CD11a+ subpopulation | – | –
Fc1cncc(-c2nc(NCCc3c[nH]c4ccccc34)c3occc3n2)c1 [CRL19, N-(2-(1H-indol-3-yl)ethyl)-2-(5-fluoropyridin-3-yl)furo[3,2-d]pyrimidin-4-amine] | supported cell expansion the best | – | – | – | very similar expansion, differentiation and cytotoxicity profiles as SR1 | highest CD34 cell expansion
Cc1cncc(-c2nc(NCCc3c[nH]c4ccccc34)c3occc3n2)c1 [CRL20, N-(2-(1H-indol-3-yl)ethyl)-2-(5-methylpyridin-3-yl)furo[3,2-d]pyrimidin-4-amine] | supported cell expansion the best | – | – | – | very similar expansion, differentiation and cytotoxicity profiles as SR1 | highest CD34 cell expansion
Cc1cncc(-c2nc(NCCc3c[nH]c4ccccc34)c3scc(C(C)C)c3n2)c1 [CRL21, N-(2-(1H-indol-3-yl)ethyl)-7-isopropyl-2-(5-methylpyridin-3-yl)thieno[3,2-d]pyrimidin-4-amine] | – | slightly less expansion compared to SR1 | increased killing activities of the cells | increased CD56+/CD11a+ subpopulation | – | –
N#Cc1cncc(-c2nc(NCCc3c[nH]c4ccccc34)c3occc3n2)c1 [CRL22, 5-(4-((2-(1H-indol-3-yl)ethyl)amino)furo[3,2-d]pyrimidin-2-yl)nicotinonitrile] | supported cell expansion the best | – | – | – | very similar expansion, differentiation and cytotoxicity profiles as SR1 | highest CD34 cell expansion
